Measured values from patent publication US20160355530A1, “HEPATITIS C INHIBITORS AND USES THEREOF” (AbbVie Inc., priority 2010, published 2016).
pEC50, pIC50: −log10 of the molar value. Like-named read-outs stand apart in the source and are kept apart here.

Legend:
[1] = tested on: chimeric replicon with 2a-J6CF-derived NS5B; assay: microbe, parasite or virus in culture; format: cell-based, HCV genotype 2a; settings: Hepatitis C virus, read-out: 2a chimera 5% FBS EC50
[2] = tested on: chimeric replicon with genotype 4a NS5B; assay: microbe, parasite or virus in culture; format: cell-based, HCV genotype 4a; settings: Hepatitis C virus, read-out: 4a chimera 5% FBS EC50
[3] = tested on: chimeric replicon with genotype 2b NS5B; assay: microbe, parasite or virus in culture; format: cell-based, HCV genotype 2b; settings: Hepatitis C virus, read-out: 2b chimera 5% FBS EC50
[4] = tested on: chimeric replicon with genotype 3a NS5B; assay: microbe, parasite or virus in culture; format: cell-based, HCV genotype 3a; settings: Hepatitis C virus, read-out: 3a chimera 5% FBS EC50
[5] = tested on: HCV NS5B polymerase 1a-H77-C316Y; assay: biochemical; set-up: species or system HCV genotype 1a; settings: ratio of enzyme IC50s, 1a H77-C316Y / 1a H77
Summary of the method: (§1)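 Recombinant NS5B (residues 1–570, His-tagged, E. coli-expressed) copied 5 nM of a 2.1 kb HCV 1b negative-strand 3′-end RNA template with 20 μM CTP, 20 μM ATP and 0.284 μM [3H]UTP for 3 h at 30 °C. Spermine-precipitated RNA was filter-captured and counted, and IC50 was fitted by nonlinear regression.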

[6] = target: T1, HCV NS5B polymerase 1a-H77-C316Y (Hepatitis C virus genotype 1a, UniProt P27958, C2736Y); assay: biochemical; set-up: species or system HCV genotype 1a
T1 construct: six-histidine tag; made in house; host or cells: E. coli
Summary of the method: as §1

[7] = target: T2, HCV NS5B polymerase 1a-H77 (Hepatitis C virus genotype 1a, UniProt P27958); assay: biochemical; set-up: species or system HCV genotype 1a; settings: enzyme, strain 1a H77; read-out: HCV Polymerase Strain 1a H77 IC50
T2 construct: six-histidine tag; made in house; host or cells: E. coli
Summary of the method: as §1

[8] = tested on: HCV 1b-BB7 subgenomic replicon; assay: microbe, parasite or virus in culture; format: cell-based, HCV genotype 1b; settings: Hepatitis C virus, stable replicon
[9] = tested on: HCV 1a-H77 subgenomic replicon; assay: microbe, parasite or virus in culture; format: cell-based, HCV genotype 1a; settings: Hepatitis C virus, stable replicon
[10] = target: T3, HCV NS5B polymerase 1b BK strain (Hepatitis C virus genotype 1b, UniProt P26663); assay: HCV NS5B polymerase enzymatic inhibition assay, strain 1b BK; format: biochemical; settings: enzyme, strain 1b BK; read-out: HCV Polymerase Strain 1b BK IC50
T3 construct: six-histidine tag; made in house; host or cells: E. coli
Summary of the method: as §1

[11] = strain 1b BB7, 5% FBS + 40% human plasma, read-out: 1b BB7 5% FBS + 40% Human Plasma EC50
[12] = strain 1b BB7, 5% FBS, no human plasma, read-out: 1b BB7 5% FBS EC50
[13] = strain 1b BB7, 5% FBS, read-out: 1b BB7 5% FBS EC50
[14] = 5% FBS, absence of human plasma, read-out: Stable Replicon 1a H77 5% FBS EC50
[15] = strain 1a H77, 5% FBS + 40% human plasma, read-out: 1a H77 5% FBS + 40% Human Plasma EC50
[16] = strain 1a H77, 5% FBS, no human plasma, read-out: 1a H77 5% FBS EC50
[17] = strain 1a H77, 5% FBS, read-out: 1a H77 5% FBS EC50

T1 sequence (P27958 2421-2990 C2736Y): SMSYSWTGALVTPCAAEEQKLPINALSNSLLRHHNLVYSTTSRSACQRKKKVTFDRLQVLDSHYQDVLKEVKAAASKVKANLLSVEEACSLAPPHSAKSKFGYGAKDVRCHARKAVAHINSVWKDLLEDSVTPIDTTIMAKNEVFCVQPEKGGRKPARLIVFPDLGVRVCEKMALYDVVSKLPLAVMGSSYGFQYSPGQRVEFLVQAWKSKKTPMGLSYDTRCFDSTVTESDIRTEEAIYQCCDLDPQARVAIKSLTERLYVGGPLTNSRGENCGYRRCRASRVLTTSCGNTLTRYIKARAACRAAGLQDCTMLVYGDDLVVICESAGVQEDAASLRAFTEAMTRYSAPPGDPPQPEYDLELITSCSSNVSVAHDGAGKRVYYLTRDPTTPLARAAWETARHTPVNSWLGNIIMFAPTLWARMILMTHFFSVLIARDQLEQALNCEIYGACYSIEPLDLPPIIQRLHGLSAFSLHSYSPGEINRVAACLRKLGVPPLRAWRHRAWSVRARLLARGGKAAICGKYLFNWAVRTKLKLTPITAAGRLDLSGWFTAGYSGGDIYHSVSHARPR
T2 sequence (P27958 2421-2990): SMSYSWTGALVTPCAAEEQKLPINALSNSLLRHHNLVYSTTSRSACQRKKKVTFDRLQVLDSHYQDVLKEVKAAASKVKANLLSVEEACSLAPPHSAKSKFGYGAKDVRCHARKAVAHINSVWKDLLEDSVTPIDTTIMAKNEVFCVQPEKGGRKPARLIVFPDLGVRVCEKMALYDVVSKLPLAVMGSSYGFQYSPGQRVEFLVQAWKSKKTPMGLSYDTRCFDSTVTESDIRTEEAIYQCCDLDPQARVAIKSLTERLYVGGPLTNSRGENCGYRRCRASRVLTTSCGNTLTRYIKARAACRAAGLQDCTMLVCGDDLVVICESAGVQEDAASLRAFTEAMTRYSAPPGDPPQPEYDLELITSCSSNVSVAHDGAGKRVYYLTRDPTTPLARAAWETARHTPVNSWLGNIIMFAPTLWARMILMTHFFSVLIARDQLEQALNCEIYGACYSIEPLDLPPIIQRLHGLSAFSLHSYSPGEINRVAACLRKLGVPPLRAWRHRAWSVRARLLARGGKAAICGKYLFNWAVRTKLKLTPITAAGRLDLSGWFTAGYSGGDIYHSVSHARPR
T3 sequence (P26663 2420-2989): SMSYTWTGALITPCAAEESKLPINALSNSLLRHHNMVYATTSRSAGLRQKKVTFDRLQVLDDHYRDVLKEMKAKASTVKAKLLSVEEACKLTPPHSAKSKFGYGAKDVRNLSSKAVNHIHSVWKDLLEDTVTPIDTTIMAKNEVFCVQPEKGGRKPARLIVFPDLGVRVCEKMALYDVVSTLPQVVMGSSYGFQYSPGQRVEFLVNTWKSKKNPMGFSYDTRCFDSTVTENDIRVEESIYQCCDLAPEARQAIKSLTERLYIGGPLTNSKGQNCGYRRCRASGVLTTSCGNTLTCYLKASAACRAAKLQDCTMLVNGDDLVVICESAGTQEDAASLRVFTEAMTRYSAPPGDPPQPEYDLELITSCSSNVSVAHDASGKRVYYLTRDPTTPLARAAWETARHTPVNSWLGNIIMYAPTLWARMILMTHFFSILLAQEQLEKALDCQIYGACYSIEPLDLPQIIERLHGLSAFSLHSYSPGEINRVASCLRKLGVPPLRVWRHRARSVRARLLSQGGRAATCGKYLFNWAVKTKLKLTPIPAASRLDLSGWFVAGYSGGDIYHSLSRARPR

Structure (SMILES): C=CCN(c1cc2oc(-c3ccc(F)cc3)c(-c3ncc[nH]3)c2cc1C1CC1)S(C)(=O)=O [Example 57, N-allyl-N-[5-cyclopropyl-2-(4-fluorophenyl)-3-(1H-imidazol-2-yl)-1-benzofuran-6-yl]methanesulfonamide]
- pEC50 [1]: 7.29
- pEC50 [2]: 6.86
- pEC50 [3]: 7.14
- pEC50 [4]: 8.04
- C316Y/1a Fold Resistance [5]: 77 fold
- pIC50 [6]: 6.63
- pIC50 [7]: 8.52
- pEC50 [8, 11]: 7.16
- pEC50 [8, 12]: 7.75
- pEC50 [8, 13]: 7.75
- pEC50 [9, 14]: 7.45
- pEC50 [9, 15]: 6.51
- pEC50 [9, 16]: 7.45
- pEC50 [9, 17]: 7.45
- pIC50 [10]: 7.96

Structure (SMILES): CS(=O)(=O)N(CCN1CCOCC1)c1cc2oc(-c3ccc(F)cc3)c(-c3ncc[nH]3)c2cc1C1CC1 [Example 58, N-[5-cyclopropyl-2-(4-fluorophenyl)-3-(1H-imidazol-2-yl)-1-benzofuran-6-yl]-N-[2-(morpholin-4-yl)ethyl]methanesulfonamide]
- pEC50 [1]: 7.10
- pEC50 [2]: 6.89
- pEC50 [3]: 6.89
- pEC50 [4]: 8.01
- C316Y/1a Fold Resistance [5]: 18 fold
- pIC50 [6]: 6.88
- pIC50 [7]: 8.14
- pEC50 [8, 11]: 6.71
- pEC50 [8, 12]: 7.92
- pEC50 [8, 13]: 7.92
- pEC50 [9, 14]: 7.66
- pEC50 [9, 15]: 6.48
- pEC50 [9, 16]: 7.66
- pEC50 [9, 17]: 7.66
- pIC50 [10]: 7.54

Structure (SMILES): CN(C)CCCN(c1cc2oc(-c3ccc(F)cc3)c(-c3ncc[nH]3)c2cc1C1CC1)S(C)(=O)=O [Example 59, N-[5-cyclopropyl-2-(4-fluorophenyl)-3-(1H-imidazol-2-yl)-1-benzofuran-6-yl]-N-[3-(dimethylamino)propyl]methanesulfonamide]
- pEC50 [1]: 7.19
- pEC50 [2]: 6.37
- pEC50 [3]: 6.90
- pEC50 [4]: 7.99
- C316Y/1a Fold Resistance [5]: 112 fold
- pIC50 [6]: 5.82
- pIC50 [7]: 7.87
- pEC50 [8, 11]: 7.70
- pEC50 [8, 12]: 7.95
- pEC50 [8, 13]: 7.95
- pEC50 [9, 14]: 7.07
- pEC50 [9, 15]: 6.80
- pEC50 [9, 16]: 7.07
- pEC50 [9, 17]: 7.07
- pIC50 [10]: 7.25

Structure (SMILES): CS(=O)(=O)N(CCCN1CCOCC1)c1cc2oc(-c3ccc(F)cc3)c(-c3ncc[nH]3)c2cc1C1CC1 [Example 60, N-[5-cyclopropyl-2-(4-fluorophenyl)-3-(1H-imidazol-2-yl)-1-benzofuran-6-yl]-N-[3-(morpholin-4-yl)propyl]methanesulfonamide]
- pEC50 [1]: 7.35
- pEC50 [2]: 7.19
- pEC50 [3]: 7.10
- pEC50 [4]: 8.09
- C316Y/1a Fold Resistance [5]: 17 fold
- pIC50 [6]: 6.72
- pIC50 [7]: 7.95
- pEC50 [8, 11]: 7.00
- pEC50 [8, 12]: 8.07
- pEC50 [8, 13]: 8.07
- pEC50 [9, 14]: 7.70
- pEC50 [9, 15]: 6.82
- pEC50 [9, 16]: 7.70
- pEC50 [9, 17]: 7.70
- pIC50 [10]: 7.70

Structure (SMILES): CS(=O)(=O)N(Cc1cnc(Br)s1)c1cc2oc(-c3ccc(F)cc3)c(-c3ncc[nH]3)c2cc1C1CC1 [Example 67, N-[(2-bromo-1,3-thiazol-5-yl)methyl]-N-[5-cyclopropyl-2-(4-fluorophenyl)-3-(1H-imidazol-2-yl)-1-benzofuran-6-yl]methanesulfonamide]
- pEC50 [1]: 7.06
- pEC50 [2]: 6.63
- pEC50 [3]: 7.11
- pEC50 [4]: 8.10
- C316Y/1a Fold Resistance [5]: 68 fold
- pIC50 [6]: 6.63
- pIC50 [7]: 8.46
- pEC50 [8, 11]: 6.59
- pEC50 [8, 12]: 7.86
- pEC50 [8, 13]: 7.86
- pEC50 [9, 14]: 7.27
- pEC50 [9, 15]: 6.00
- pEC50 [9, 16]: 7.27
- pEC50 [9, 17]: 7.27
- pIC50 [10]: 7.92

Structure (SMILES): COCCCN(c1cc2oc(-c3ccc(F)cc3)c(-c3ncc[nH]3)c2cc1C1CC1)S(C)(=O)=O [Example 69, N-[5-cyclopropyl-2-(4-fluorophenyl)-3-(1H-imidazol-2-yl)-1-benzofuran-6-yl]-N-(3-methoxypropyl)methanesulfonamide]
- pEC50 [1]: 7.21
- pEC50 [2]: 7.08
- pEC50 [3]: 7.17
- pEC50 [4]: 8.03
- C316Y/1a Fold Resistance [5]: 32 fold
- pIC50 [6]: 6.69
- pIC50 [7]: 8.19
- pEC50 [8, 11]: 7.23
- pEC50 [8, 12]: 8.18
- pEC50 [8, 13]: 8.18
- pEC50 [9, 14]: 7.86
- pEC50 [9, 15]: 6.59
- pEC50 [9, 16]: 7.86
- pEC50 [9, 17]: 7.86
- pIC50 [10]: 7.54

Structure (SMILES): CCCCCN(c1cc2oc(-c3ccc(F)cc3)c(-c3ncc[nH]3)c2cc1C1CC1)S(C)(=O)=O [Example 70, N-[5-cyclopropyl-2-(4-fluorophenyl)-3-(1H-imidazol-2-yl)-1-benzofuran-6-yl]-N-pentylmethanesulfonamide]
- pEC50 [1]: 6.76
- pEC50 [2]: 6.55
- pEC50 [3]: 6.63
- pEC50 [4]: 7.57
- C316Y/1a Fold Resistance [5]: 8 fold
- pIC50 [6]: 7.16
- pIC50 [7]: 8.07
- pEC50 [8, 11]: 6.53
- pEC50 [8, 12]: 7.45
- pEC50 [8, 13]: 7.45
- pEC50 [9, 14]: 7.38
- pEC50 [9, 15]: 6.19
- pEC50 [9, 16]: 7.38
- pEC50 [9, 17]: 7.38
- pIC50 [10]: 7.62

Structure (SMILES): CCCCCCN(c1cc2oc(-c3ccc(F)cc3)c(-c3ncc[nH]3)c2cc1C1CC1)S(C)(=O)=O [Example 71, N-[5-cyclopropyl-2-(4-fluorophenyl)-3-(1H-imidazol-2-yl)-1-benzofuran-6-yl]-N-hexylmethanesulfonamide]
- pEC50 [1]: 6.39
- pEC50 [2]: 6.22
- pEC50 [3]: 6.42
- pEC50 [4]: 7.14
- C316Y/1a Fold Resistance [5]: 15 fold
- pIC50 [6]: 6.87
- pIC50 [7]: 8.05
- pEC50 [8, 11]: 5.97
- pEC50 [8, 12]: 7.41
- pEC50 [8, 13]: 7.41
- pEC50 [9, 14]: 7.18
- pEC50 [9, 15]: 5.64
- pEC50 [9, 16]: 7.18
- pEC50 [9, 17]: 7.18
- pIC50 [10]: 7.55

Structure (SMILES): CC(=O)CCCN(c1cc2oc(-c3ccc(F)cc3)c(-c3ncc[nH]3)c2cc1C1CC1)S(C)(=O)=O [Example 73, N-[5-cyclopropyl-2-(4-fluorophenyl)-3-(1H-imidazol-2-yl)-1-benzofuran-6-yl]-N-(4-oxopentyl)methanesulfonamide]
- pEC50 [1]: 7.57
- pEC50 [2]: 7.37
- pEC50 [3]: 7.66
- pEC50 [4]: 8.54
- C316Y/1a Fold Resistance [5]: 15 fold
- pIC50 [6]: 7.28
- pIC50 [7]: 8.46
- pEC50 [8, 11]: 7.26
- pEC50 [8, 12]: 8.31
- pEC50 [8, 13]: 8.31
- pEC50 [9, 14]: 8.10
- pEC50 [9, 15]: 7.14
- pEC50 [9, 16]: 8.10
- pEC50 [9, 17]: 8.10
- pIC50 [10]: 7.82

Structure (SMILES): CSCCN(c1cc2oc(-c3ccc(F)cc3)c(-c3ncc[nH]3)c2cc1C1CC1)S(C)(=O)=O [Example 74, N-[5-cyclopropyl-2-(4-fluorophenyl)-3-(1H-imidazol-2-yl)-1-benzofuran-6-yl]-N-[2-(methylthio)ethyl]methanesulfonamide]
- pEC50 [1]: 7.19
- pEC50 [2]: 7.06
- pEC50 [3]: 7.24
- pEC50 [4]: 8.35
- C316Y/1a Fold Resistance [5]: 36 fold
- pIC50 [6]: 6.97
- pIC50 [7]: 8.52
- pEC50 [8, 11]: 6.90
- pEC50 [8, 12]: 8.19
- pEC50 [8, 13]: 8.19
- pEC50 [9, 14]: 7.87
- pEC50 [9, 15]: 6.60
- pEC50 [9, 16]: 7.87
- pEC50 [9, 17]: 7.87
- pIC50 [10]: 7.89

Structure (SMILES): CC(=O)CCCCN(c1cc2oc(-c3ccc(F)cc3)c(-c3ncc[nH]3)c2cc1C1CC1)S(C)(=O)=O [Example 77, N-[5-cyclopropyl-2-(4-fluorophenyl)-3-(1H-imidazol-2-yl)-1-benzofuran-6-yl]-N-(5-oxohexyl)methanesulfonamide]
- pEC50 [1]: 7.49
- pEC50 [2]: 7.37
- pEC50 [3]: 7.57
- pEC50 [4]: 8.31
- C316Y/1a Fold Resistance [5]: 10 fold
- pIC50 [6]: 7.31
- pIC50 [7]: 8.30
- pEC50 [8, 11]: 7.33
- pEC50 [8, 12]: 8.24
- pEC50 [8, 13]: 8.24
- pEC50 [9, 14]: 8.22
- pEC50 [9, 15]: 7.18
- pEC50 [9, 16]: 8.22
- pEC50 [9, 17]: 8.22
- pIC50 [10]: 8.00
